# Measurements taken from patent publication US9914730B2, “Azaquinazoline inhibitors of Atypical protein Kinase C” (Ignyta, Inc., priority 2012, dated 2018).
# Biological target: T1, full-length human PKCι (Homo sapiens, UniProt P41743)
# T1 construct: Recombinant, full-length human PKCι expressed in Sf21 insect cells is also commercially available; purchased; host or cells: Sf21 insect cells
# T1 sequence (P41743 1-596): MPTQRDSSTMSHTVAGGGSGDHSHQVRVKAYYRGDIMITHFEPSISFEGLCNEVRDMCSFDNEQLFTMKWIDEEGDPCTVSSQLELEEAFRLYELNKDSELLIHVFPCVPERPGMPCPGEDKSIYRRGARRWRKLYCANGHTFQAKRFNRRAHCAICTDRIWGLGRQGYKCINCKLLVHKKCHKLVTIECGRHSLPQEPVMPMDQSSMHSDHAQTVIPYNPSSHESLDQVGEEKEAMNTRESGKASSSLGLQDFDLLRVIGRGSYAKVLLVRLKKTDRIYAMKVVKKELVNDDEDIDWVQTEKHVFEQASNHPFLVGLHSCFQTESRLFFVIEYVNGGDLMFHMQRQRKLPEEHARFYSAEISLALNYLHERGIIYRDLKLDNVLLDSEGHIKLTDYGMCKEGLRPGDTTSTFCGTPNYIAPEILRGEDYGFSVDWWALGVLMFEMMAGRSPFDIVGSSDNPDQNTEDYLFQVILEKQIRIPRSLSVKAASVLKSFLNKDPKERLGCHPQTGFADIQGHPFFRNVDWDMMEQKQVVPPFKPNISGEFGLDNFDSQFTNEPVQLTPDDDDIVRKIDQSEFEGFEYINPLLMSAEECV
# Assay: PKCι IC50 IMAP assay, full-length PKCι at 150 μM ATP
# Type: biochemical
# Conditions: read-out: IC50 in IMAP assay against full length PKCi at 150 μM ATP
# Summary of the method: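 Recombinant full-length human PKCι (Sf21-expressed, typically 15 pM) phosphorylated 100 nM 5FAM-labelled PKCε pseudosubstrate-derived peptide with 150 μM ATP (5× KM^APP) in 18 mM tris-HCl pH7.5, 9 mM MgCl2, EGTA, DTT, 4% DMSO. After 60 min at room temperature, IMAP binding reagent was added for 2 h and fluorescence polarisation read.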
row,Structure (SMILES),IC50 [nM]
1,"c1cc2c(N3CCNCC3)nc(-c3ccnc4[nH]ccc34)nc2cn1 [Example 1207, 4-Piperazin-1-yl-2-(1H-pyrrolo[2,3-b]pyridin-4-yl)-pyrido[3,4-d]pyrimidine]",100 to 1000
2,"Fc1cc(C2CC2)cc(F)c1Nc1cc(-c2nc(N3CCNCC3)c3c(C4CC4)cncc3n2)ccn1 [Example 603, (4-Cyclopropyl-2,6-difluoro-phenyl)-[4-(5-cyclopropyl-4-piperazin-1-yl-pyrido[3,4-d]pyrimidin-2-yl)-pyridin-2-yl]-amine]",< 100
3,"N[C@@H](CNc1nc(-c2ccncc2)nc2c(Sc3ccccc3)nccc12)Cc1ccccc1 [Example 128, (R)-3-Phenyl-N^1-(8-phenylsulfanyl-2-pyridin-4-yl-pyrido[3,4-d]pyrimidin-4-yl)-propane-1,2-diamine]",1000 to 10000
4,"CCc1cccc(Nc2cc(-c3nc(N4CCNCC4)c4c(C5CC5)cncc4n3)ccn2)c1 [Example 623, [4-(5-Cyclopropyl-4-piperazin-1-yl-pyrido[3,4-d]pyrimidin-2-yl)-pyridin-2-yl]-(3-ethyl-phenyl)-amine]",< 100
5,"FC(F)c1cc2c(-c3nc(N4CCNCC4)c4c(C5CCC5)cncc4n3)ccnc2[nH]1 [Example 2114, 5-Cyclobutyl-2-(2-difluoromethyl-1H-pyrrolo[2,3-b]pyridin-4-yl)-4-piperazin-1-yl-pyrido[3,4-d]pyrimidine]",< 100
6,"COc1cncc2nc(-c3ccnc(Nc4cc(Cl)ccn4)c3)nc(N3CCNCC3)c12 [Example 365, (4-Chloro-pyridin-2-yl)-[4-(5-methoxy-4-piperazin-1-yl-pyrido[3,4-d]pyrimidin-2-yl)-pyridin-2-yl]-amine]",< 100
7,"N[C@H](CNc1nc(-c2ccncc2)nc2c(Nc3nc[nH]n3)nccc12)Cc1ccccc1 [Example 126, 4-N-[(2S)-2-amino-3-phenylpropyl]-2-(pyridin-4-yl)-8-N-(1H-1,2,4-triazol-3-yl)pyrido[3,4-d]pyrimidine-4,8-diamine]",100 to 1000
8,"CN(C)CCOc1nc(-c2ccnc(Nc3c(F)cccc3F)c2)nc2cncc(C3CC3)c12 [Example 826, {4-[5-Cyclopropyl-4-(2-dimethylamino-ethoxy)-pyrido[3,4-d]pyrimidin-2-yl]-pyridin-2-yl}-(2,6-difluoro-phenyl)-amine]",100 to 1000
9,"COc1cncc2nc(-c3ccnc(NC(=O)Cc4ccncc4)c3)nc(N3CCNCC3)c12 [Example 400, N-[4-(5-Methoxy-4-piperazin-1-yl-pyrido[3,4-d]pyrimidin-2-yl)-pyridin-2-yl]-2-pyridin-4-yl-acetamide]",< 100
10,"COc1cncc2nc(-c3ccnc(Nc4cccc(F)c4F)c3)nc(N3CCNCC3)c12 [Example 439, (2,3-Difluoro-phenyl)-[4-(5-methoxy-4-piperazin-1-yl-pyrido[3,4-d]pyrimidin-2-yl)-pyridin-2-yl]-amine]",< 100
11,"C=C(C)c1cncc2nc(-c3ccncc3)nc(N3CCNCC3)c12 [Example 143, 5-Isopropenyl-4-piperazin-1-yl-2-pyridin-4-yl-pyrido[3,4-d]pyrimidine]",< 100
12,"N[C@@H](CNc1nc(-c2ccncc2)nc2c(Nc3ccccc3)nccc12)Cc1ccccc1 [Example 123, N^4-((R)-2-Amino-3-phenyl-propyl)-N^8-phenyl-2-pyridin-4-yl-pyrido[3,4-d]pyrimidine-4,8-diamine]",1000 to 10000
13,"COc1cncc2nc(-c3ccnc(Nc4c(C)cccc4F)c3)nc(N3CCNCC3)c12 [Example 422, (2-Fluoro-6-methyl-phenyl)-[4-(5-methoxy-4-piperazin-1-yl-pyrido[3,4-d]pyrimidin-2-yl)-pyridin-2-yl]-amine]",< 100
14,"NC(=O)c1cc(F)c(Nc2cc(-c3nc(N4CCNCC4)c4c(C5CC5)cncc4n3)ccn2)c(F)c1 [Example 822, 4-[4-(5-Cyclopropyl-4-piperazin-1-yl-pyrido[3,4-d]pyrimidin-2-yl)-pyridin-2-ylamino]-3,5-difluoro-benzamide]",1000 to 10000
15,"CN(c1nc(-c2ccnc(Nc3c(F)cccc3F)c2)nc2cncc(C3CC3)c12)C1CNC1 [Example 2029, Azetidin-3-yl-{5-cyclopropyl-2-[2-(2,6-difluoro-phenylamino)-pyridin-4-yl]-pyrido[3,4-d]pyrimidin-4-yl}-methyl-amine]",< 100
16,"Clc1c[nH]c2nccc(-c3nc(N4CCNCC4)c4c(C5CC5)cncc4n3)c12 [Example 2087, 2-(3-Chloro-1H-pyrrolo[2,3-b]pyridin-4-yl)-5-cyclopropyl-4-piperazin-1-yl-pyrido[3,4-d]pyrimidine]",< 100

row,Structure (SMILES),IC50 [nM]
1,"COc1cc2nccc(-c3nc(N4CCNCC4)c4c(C5CC5)cncc4n3)c2cc1OC [Example 579, 5-Cyclopropyl-2-(6,7-dimethoxy-quinolin-4-yl)-4-piperazin-1-yl-pyrido[3,4-d]pyrimidine]",10000 to 40000
2,"O=S1(=O)CCN(c2nc(-c3ccnc4[nH]c(C(F)(F)F)cc34)nc3cncc(C4CC4)c23)CC1 [Example 1245, 5-Cyclopropyl-4-(1,1-dioxo-1λ^6-thiomorpholin-4-yl)-2-(2-trifluoromethyl-1H-pyrrolo[2,3-b]pyridin-4-yl)-pyrido[3,4-d]pyrimidine]",10000 to 40000
3,"CC(C)n1ccc(Nc2cc(-c3nc(N4CCNCC4)c4c(C5CC5)cncc4n3)ccn2)n1 [Example 779, [4-(5-Cyclopropyl-4-piperazin-1-yl-pyrido[3,4-d]pyrimidin-2-yl)-pyridin-2-yl]-(1-isopropyl-1H-pyrazol-3-yl)-amine]",< 100
4,"CN1CCN(c2cccc(Nc3cc(-c4nc(N5CCC(O)CC5)c5c(C6CC6)cncc5n4)ccn3)c2)CC1 [Example 688, 1-(5-Cyclopropyl-2-{2-[3-(4-methyl-piperazin-1-yl)-phenylamno]-pyridin-4-yl}-pyrido[3,4-d]pyrimidin-4-yl)-piperidin-4-ol]",< 100
5,"Fc1cccc(F)c1Nc1cc(-c2nc(NCC3CCNCC3)c3c(C4CC4)cncc3n2)ccn1 [Example 2107, {5-Cyclopropyl-2-[2-(2,6-difluoro-phenylamino)-pyridin-4-yl]-pyrido[3,4-d]pyrimidin-4-yl}-piperidin-4-ylmethyl-amine]",< 100
6,"COc1cncc2nc(-c3ccnc(NC(=O)Cc4cccc(N)c4)c3)nc(N[C@@H]3CCNC3)c12 [Example 325, 2-(3-Amino-phenyl)-N-{4-[5-methoxy-4-((R)-pyrrolidin-3-ylamino)-pyrido[3,4-d]pyrimidin-2-yl]-pyridin-2-yl}-acetamide]",10000 to 40000
7,"COc1cncc2nc(-c3ccnc(Nc4ccccc4)c3)nc(N3CCN[C@H](CO)C3)c12 [Example 222, {(S)-4-[5-Methoxy-2-(2-phenylamino-pyridin-4-yl)-pyrido[3,4-d]pyrimidin-4-yl]-piperazin-2-yl}-methanol]",< 100
8,"COc1cncc2nc(-c3ccnc(Nc4ccccc4)c3)nc(N3CCN[C@@H](CO)C3)c12 [Example 434, {(R)-4-[5-Methoxy-2-(2-phenylamino-pyridin-4-yl)-pyrido[3,4-d]pyrimidin-4-yl]-piperazin-2-yl}-methanol]",< 100
9,"CN1CCN(c2cccc(Nc3cc(-c4nc(N5CCC(O)(O)C(F)(F)C5)c5c(C6CC6)cncc5n4)ccn3)c2)CC1 [Example 747, 1-(5-Cyclopropyl-2-{2-[3-(4-methyl-piperazin-1-yl)-phenylamino]-pyridin-4-yl}-pyrido[3,4-d]pyrimidin-4-yl)-3,3-difluoro-piperidine-4,4-diol]",< 100
10,"Fc1cc(C2CCC2)cnc1Nc1cc(-c2nc(N3CCNCC3)c3c(C4CC4)cncc3n2)ccn1 [Example 2013, (5-Cyclobutyl-3-fluoro-pyridin-2-yl)-[4-(5-cyclopropyl-4-piperazin-1-yl-pyrido[3,4-d]pyrimidin-2-yl)-pyridin-2-yl]-amine]",< 100
11,"CN1CCN(c2cccc(Nc3cc(-c4nc(N5CC[C@@H](CO)C5)c5c(C6CC6)cncc5n4)ccn3)c2)CC1 [Example 721, [(R)-1-(5-Cyclopropyl-2-{2-[3-(4-methyl-piperazin-1-yl)-phenylamino]-pyridin-4-yl}-pyrido[3,4-d]pyrimidin-4-yl)-pyrrolidin-3-yl]-methanol]",< 100
12,"COc1cncc2nc(N3CCOC(COc4ccccc4)C3)nc(N3CCNCC3)c12 (stereo not shown) [Example 1004, 5-Methoxy-2-(2-phenoxymethyl-morpholin-4-yl)-4-piperazin-1-yl-pyrido[3,4-d]pyrimidine]",1000 to 10000
13,"OC1CCN(c2nc(-c3ccnc(Nc4cccc(F)n4)c3)nc3cncc(C4CC4)c23)CC1 [Example 805, 1-{5-Cyclopropyl-2-[2-(6-fluoro-pyridin-2-ylamino)-pyridin-4-yl]-pyrido[3,4-d]pyrimidin-4-yl}-piperidin-4-ol]",100 to 1000
14,"Nc1cccc(C(=O)Nc2cc(-c3nc(N[C@@H]4CCNC4)c4ccncc4n3)ccn2)c1 [Example 309, 3-Amino-N-{4-[4-((R)-pyrrolidin-3-ylamino)-pyrido[3,4-d]pyrimidin-2-yl]-pyridin-2-yl}-benzamide]",100 to 1000
15,"O[C@@H]1CCN(c2nc(-c3ccncc3)nc3cnccc23)C1 [Example 36, (3R)-1-[2-(pyridin-4-yl)pyrido[3,4-d]-pyrimidin-4-yl]-pyrrolidin-3-ol]",10000 to 40000
